The test addresses T1, GlyA1-ΔCt (rumen metagenome, UniProt Z9J456A3C9).
T1 sequence (Z9J456A3C9 2-799): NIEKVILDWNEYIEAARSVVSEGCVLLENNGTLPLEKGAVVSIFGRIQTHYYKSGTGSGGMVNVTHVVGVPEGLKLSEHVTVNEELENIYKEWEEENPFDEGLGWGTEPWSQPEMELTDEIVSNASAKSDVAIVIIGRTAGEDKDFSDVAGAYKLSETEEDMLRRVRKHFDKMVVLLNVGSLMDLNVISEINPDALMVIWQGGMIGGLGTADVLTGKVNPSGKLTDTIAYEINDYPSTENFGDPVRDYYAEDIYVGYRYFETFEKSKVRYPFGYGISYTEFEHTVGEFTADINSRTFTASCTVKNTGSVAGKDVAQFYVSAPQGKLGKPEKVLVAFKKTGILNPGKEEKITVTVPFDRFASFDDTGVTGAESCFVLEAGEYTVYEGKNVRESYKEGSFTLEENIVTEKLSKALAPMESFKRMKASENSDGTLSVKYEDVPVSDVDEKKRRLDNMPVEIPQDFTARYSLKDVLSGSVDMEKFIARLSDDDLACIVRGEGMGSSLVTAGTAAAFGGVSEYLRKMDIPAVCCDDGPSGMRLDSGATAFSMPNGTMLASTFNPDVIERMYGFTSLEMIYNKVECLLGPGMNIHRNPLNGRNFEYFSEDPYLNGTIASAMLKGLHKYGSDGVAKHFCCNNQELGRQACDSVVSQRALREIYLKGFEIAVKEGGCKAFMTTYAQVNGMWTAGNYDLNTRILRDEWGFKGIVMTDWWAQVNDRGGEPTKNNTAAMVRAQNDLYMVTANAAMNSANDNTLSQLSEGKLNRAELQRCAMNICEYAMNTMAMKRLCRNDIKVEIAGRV
The test can be described thus: X-ray crystallography, […] Å, soak […]. Format: binding. As to conditions: active site subsite -1, semi-chair conformation; 2.0 M ammonium sulfate, pH 5.5.

These results are taken from PMC5104943, “Structural and Functional Characterization of a Ruminal β-Glycosidase Defines a Novel Subfamily of Glycoside Hydrolase Family 3 with Permuted Domain Topology” (The Journal of Biological Chemistry, 2016).

Each structure is given as a SMILES string.

For the molecule `OC[C@H]1OC(O)[C@H](O)[C@@H](O)[C@H]1O` (stereo partly drawn) [D-galactose], the “X-ray crystallography, 2.29 Å, soak 5-50 mM” value is “soaking of crystals with galactose showed that this sugar displays a semi-chair conformation”.
